Reference: patent publication US20190343828A1, “CAMPTOTHECIN PEPTIDE CONJUGATES” (SEATTLE GENETICS, INC., priority 2018, published 2019)

Key:
[1] = tested on: B-lymphocyte cancer cells (U266); assay: In vitro cytotoxicity, CellTiter-Glo 96 h, U266; conditions: Homo sapiens, U-266, read-out: Cytotoxic potency as free drug, IC50, U266
Method: (§1) In vitro potency was assessed on multiple cancer cell lines. All cell lines were authenticated by STR profiling at IDEXX Bioresearch and cultured for no more than 2 months after resuscitation. Cells cultured in log-phase growth were seeded for 24 hours in 96-well plates containing 150 μl RPMI 1640 supplemented with 20% FBS. Serial dilutions of antibody-drug conjugates in cell culture media were prepared at 4× working concentrations, and 50 μl of each dilution was added to the 96-well plates. Following addition of test articles, cells were incubated with test articles for 4 days at 37° C. After 96 hours, growth inhibition was assessed by CellTiter-Glo® (Promega, Madison, Wis.) and luminescence was measured on a plate reader.
(§2) Cell viability was determined by CellTiter-Glo staining after 96 h exposure to ADC. […] Ag1 is an antibody targeting a ubiquitous and readily internalizable antigen on cancer cells, Ag2 is cAC10 antibody targeting CD30(+) cancer cells, Ag3 is h1F6 antibody targeting CD70(+) cancer cells, Ag4 is hMEM102 antibody targeting CD48(+) cancer cells, Ag5 is h20F3 antibody targeting NTB-A expressing cancer cells, and h00 is a non-binding control antibody.

[2] = tested on: renal carcinoma cells (786-O); assay: In vitro cytotoxicity, CellTiter-Glo 96 h, 786-O; conditions: Homo sapiens, 786-0, read-out: Cytotoxic potency (IC50 class), 786-O
Method: as §1
(§3) Cell viability was determined by CellTiter-Glo staining after 96 h exposure to ADC.

[3] = tested on: pancreatic cancer cells (BxPC3); assay: In vitro cytotoxicity, CellTiter-Glo 96 h, BxPC3; conditions: Homo sapiens, BXPC-3, read-out: Cytotoxic potency (IC50 class), BxPC3
Method: as §1, §3

[4] = tested on: acute promyelocytic leukemia cells (HL-60); assay: In vitro cytotoxicity, CellTiter-Glo 96 h, HL-60; conditions: Homo sapiens, HL-60, read-out: Cytotoxic potency (IC50 class), HL-60
Method: as §1, §2

[5] = tested on: multiple myeloma cells (MM.1R); assay: In vitro cytotoxicity, CellTiter-Glo 96 h, MM.1R; conditions: read-out: Cytotoxic potency (IC50 class), MM.1R
Method: as §1, §2

[6] = tested on: Burkitt's lymphoma cells (Ramos); assay: In vitro cytotoxicity, CellTiter-Glo 96 h, Ramos; conditions: Homo sapiens, read-out: Cytotoxic potency as free drug, IC50, Ramos
[7] = tested on: Hodgkin's lymphoma cells (L540cy); assay: In vitro cytotoxicity, CellTiter-Glo 96 h, L540cy; conditions: read-out: Cytotoxic potency (IC50 class), L540cy
Method: as §1, §3

[8] = tested on: acute myeloid leukemia cells (MOLM13); assay: In vitro cytotoxicity, CellTiter-Glo 96 h, MOLM13; conditions: Homo sapiens, MOLM-13, read-out: Cytotoxic potency as free drug, IC50, MOLM13
Method: as §1, §3

[9] = tested on: multiple drug resistant acute promyelocytic leukemia cells (HL-60/RV); assay: In vitro cytotoxicity, CellTiter-Glo 96 h, HL60/RV; conditions: Homo sapiens, HL-60, read-out: Cytotoxic potency (IC50 class), HL60/RV
Method: as §1, §3

[10] = tested on: melanoma cells (SK-MEL-5); assay: In vitro cytotoxicity, CellTiter-Glo 96 h, SK-MEL-5; conditions: Homo sapiens, SK-MEL-5, read-out: Cytotoxic potency as free drug, IC50, SK-MEL-5
[11] = tested on: B-lymphocyte cancer cells (SU-DHL-4); assay: In vitro cytotoxicity, CellTiter-Glo 96 h, SU-DHL-4; conditions: Homo sapiens, SU-DHL-4, read-out: Cytotoxic potency as free drug, IC50, SU-DHL-4

CC[C@@]1(O)C(=O)OCc2c1cc1n(c2=O)Cc2c-1nc1cc3c(cc1c2CNC)OCO3 [Compound 5]
IC50 [1]: 1 to 10 nM
IC50 [2]: 1 to 10 nM
IC50 [3]: 10 to 100 nM
IC50 [4]: 10 to 100 nM
IC50 [5]: 1 to 10 nM
IC50 [6]: 1 to 10 nM
IC50 [7]: 1 to 10 nM
IC50 [8]: 1 to 10 nM
IC50 [9]: 10 to 100 nM
IC50 [10]: 1 to 10 nM
IC50 [11]: 1 to 10 nM

CC[C@@]1(O)C(=O)OCc2c1cc1n(c2=O)Cc2c-1nc1cc3c(cc1c2-c1ccccc1)OCO3 [Compound 6d]
IC50 [1]: 1 to 10 nM
IC50 [2]: 1 to 10 nM
IC50 [3]: 1 to 10 nM
IC50 [4]: 1 to 10 nM
IC50 [5]: 1 to 10 nM
IC50 [6]: 0.1 to 1 nM
IC50 [7]: 1 to 10 nM
IC50 [8]: 1 to 10 nM
IC50 [9]: 1 to 10 nM
IC50 [10]: 1 to 10 nM
IC50 [11]: 0.1 to 1 nM

CC[C@@]1(O)C(=O)OCc2c1cc1n(c2=O)Cc2c-1nc1cc3c(cc1c2CN(C)C(=O)CN)OCO3 [Compound 4c]
IC50 [1]: 10 to 100 nM
IC50 [2]: 10 to 100 nM
IC50 [3]: 100 to 1000 nM
IC50 [4]: 100 to 1000 nM
IC50 [5]: 10 to 100 nM
IC50 [6]: 1 to 10 nM
IC50 [7]: 10 to 100 nM
IC50 [8]: 1 to 10 nM
IC50 [9]: 100 to 1000 nM
IC50 [10]: 100 to 1000 nM
IC50 [11]: 10 to 100 nM

CC[C@@]1(O)C(=O)OCc2c1cc1n(c2=O)Cc2c-1nc1cc3c(cc1c2CN(C)CCNC)OCO3 [Compound 5x]
IC50 [1]: 10 to 100 nM
IC50 [2]: 10 to 100 nM
IC50 [3]: 100 to 1000 nM
IC50 [4]: 100 to 1000 nM
IC50 [5]: 10 to 100 nM
IC50 [6]: 10 to 100 nM
IC50 [7]: 10 to 100 nM
IC50 [8]: 10 to 100 nM
IC50 [9]: 100 to 1000 nM
IC50 [10]: 10 to 100 nM
IC50 [11]: 10 to 100 nM

CCc1c2c(nc3cc4c(cc13)OCO4)-c1cc3c(c(=O)n1C2)COC(=O)[C@]3(O)CC [Compound 6e]
IC50 [1]: 1 to 10 nM
IC50 [2]: 0.1 to 1 nM
IC50 [3]: 1 to 10 nM
IC50 [4]: 1 to 10 nM
IC50 [5]: 0.1 to 1 nM
IC50 [6]: 0.1 to 1 nM
IC50 [7]: 0.1 to 1 nM
IC50 [8]: 1 to 10 nM
IC50 [9]: 1 to 10 nM
IC50 [10]: 1 to 10 nM
IC50 [11]: 0.1 to 1 nM

CC[C@@]1(O)C(=O)OCc2c1cc1n(c2=O)Cc2c-1nc1cc3c(cc1c2CNCC1CCNCC1)OCO3 [Compound 5u]
IC50 [1]: 10 to 100 nM
IC50 [2]: 10 to 100 nM
IC50 [3]: 10 to 100 nM
IC50 [4]: 100 to 1000 nM
IC50 [5]: 10 to 100 nM
IC50 [6]: 1 to 10 nM
IC50 [7]: 10 to 100 nM
IC50 [8]: 10 to 100 nM
IC50 [9]: 100 to 1000 nM
IC50 [10]: 10 to 100 nM
IC50 [11]: 10 to 100 nM

CCC(CC)Cc1c2c(nc3cc4c(cc13)OCO4)-c1cc3c(c(=O)n1C2)COC(=O)[C@]3(O)CC [Compound 6g]
IC50 [1]: 1 to 10 nM
IC50 [2]: 1 to 10 nM
IC50 [3]: 1 to 10 nM
IC50 [4]: 10 to 100 nM
IC50 [5]: 1 to 10 nM
IC50 [6]: 0.1 to 1 nM
IC50 [7]: 1 to 10 nM
IC50 [8]: 1 to 10 nM
IC50 [9]: 1 to 10 nM
IC50 [10]: 1 to 10 nM
IC50 [11]: 1 to 10 nM

CC[C@@]1(O)C(=O)OCc2c1cc1n(c2=O)Cc2c-1nc1cc3c(cc1c2CC(C)(C)C)OCO3 [Compound 6n]
IC50 [1]: 1 to 10 nM
IC50 [2]: 1 to 10 nM
IC50 [3]: 1 to 10 nM
IC50 [4]: 10 to 100 nM
IC50 [5]: 1 to 10 nM
IC50 [6]: 1 to 10 nM
IC50 [7]: 1 to 10 nM
IC50 [8]: 1 to 10 nM
IC50 [9]: 1 to 10 nM
IC50 [10]: 1 to 10 nM
IC50 [11]: 1 to 10 nM

CC[C@@]1(O)C(=O)OCc2c1cc1n(c2=O)Cc2c-1nc1cc3c(cc1c2C)OCO3 [Compound 6p]
IC50 [1]: 0.1 to 1 nM
IC50 [2]: 0.1 to 1 nM
IC50 [3]: 0.1 to 1 nM
IC50 [4]: 10 to 100 nM
IC50 [5]: 0.1 to 1 nM
IC50 [6]: 0.1 to 1 nM
IC50 [7]: 0.1 to 1 nM
IC50 [8]: 1 to 10 nM
IC50 [9]: 1 to 10 nM
IC50 [10]: 0.1 to 1 nM
IC50 [11]: 0.1 to 1 nM

CC[C@@]1(O)C(=O)OCc2c1cc1n(c2=O)Cc2c-1nc1cc3c(cc1c2CN)OCO3 [Compound 4, 7-methylamino Derivative-methylenedioxy camptothecin]
IC50 [1]: 1 to 10 nM
IC50 [2]: 1 to 10 nM
IC50 [3]: 1 to 10 nM
IC50 [4]: 10 to 100 nM
IC50 [5]: 1 to 10 nM
IC50 [6]: 1 to 10 nM
IC50 [7]: 1 to 10 nM
IC50 [8]: 1 to 10 nM
IC50 [9]: 10 to 100 nM
IC50 [10]: 1 to 10 nM
IC50 [11]: 0.1 to 1 nM
